The record followed here is ChEMBL document CHEMBL3046153, “Synthesis and antimicrobial evaluation of 4,5-diaryl-2-[4-(t-amino)-2-butynyl]-2,4-dihydro-3H-1,2,4-triazol-3-ones” (2012).

Common to all, as to type: functional
One assay concerns Candida albicans. As to the kind of experiment: Antifungal activity against Candida albicans clinical isolate after 24 hr by NCCLS broth macrodilution method.
In a further assay the test system is Pseudomonas aeruginosa. The assay is described as follows: Antibacterial activity against Pseudomonas aeruginosa ATCC 27953 after 16 to 18 hr by NCCLS broth macrodilution method.
Another assay deals with Escherichia coli. As to the kind of experiment: Antibacterial activity against Escherichia coli ATCC 25922 after 16 to 18 hr by NCCLS broth macrodilution method.
A further assay relates to Staphylococcus aureus. As to the kind of experiment: Antibacterial activity against Staphylococcus aureus ATCC 29213 after 16 to 18 hr by NCCLS broth macrodilution method.

Converted amounts (≈) assume the structure as drawn.

Take `CC1CCCC(C)N1CC#CCn1nc(-c2ccccc2)n(-c2ccccc2)c1=O` (stereo unspecified): the minimal inhibitory concentration (MIC) (commonly the lowest concentration found to suppress growth) against Candida albicans turned out to be 25 µg/mL (≈ 62.4 µM); with Pseudomonas aeruginosa, 50 µg/mL (≈ 125 µM); in the assay on Escherichia coli, 12.5 µg/mL (≈ 31.2 µM); in the assay with Staphylococcus aureus it was 12.5 µg/mL (≈ 31.2 µM).

Consider `O=c1n(CC#CCN2CCCCCC2)nc(-c2ccccc2)n1-c1ccccc1`, for which the minimum inhibitory concentration (MIC) against Candida albicans is 12.5 µg/mL (≈ 32.3 µM); against Pseudomonas aeruginosa, 50 µg/mL (≈ 129 µM); in the assay with Escherichia coli it was 12.5 µg/mL (≈ 32.3 µM); in the assay on Staphylococcus aureus, 6.25 µg/mL (≈ 16.2 µM).

With `O=c1n(CC#CCN2CCCCCCC2)nc(-c2ccccc2)n1-c1ccccc1`, the MIC in the assay with Candida albicans worked out at 12.5 µg/mL (≈ 31.2 µM); with Pseudomonas aeruginosa, 25 µg/mL (≈ 62.4 µM); with Escherichia coli it was 6.25 µg/mL (≈ 15.6 µM); with Staphylococcus aureus, 6.25 µg/mL (≈ 15.6 µM).

Turning to `CC1CCCCN1CC#CCn1nc(-c2ccccc2)n(-c2ccccc2)c1=O` (stereo unspecified), the minimal inhibitory concentration (MIC) with Candida albicans came to 25 µg/mL (≈ 64.7 µM); in the assay on Pseudomonas aeruginosa it was 100 µg/mL (≈ 259 µM); in the assay with Escherichia coli, 50 µg/mL (≈ 129 µM); against Staphylococcus aureus it was 12.5 µg/mL (≈ 32.3 µM).

Take `CC1CCCN(CC#CCn2nc(-c3ccccc3)n(-c3ccccc3)c2=O)C1` (stereo unspecified): the MIC came to 12.5 µg/mL (≈ 32.3 µM) against Candida albicans, 50 µg/mL (≈ 129 µM) with Pseudomonas aeruginosa, 12.5 µg/mL (≈ 32.3 µM) against Escherichia coli and 12.5 µg/mL (≈ 32.3 µM) with Staphylococcus aureus.

As for `O=c1n(CC#CCN2CCCC2)nc(-c2ccccc2)n1-c1ccccc1`, the minimal inhibitory concentration (MIC) in the assay with Candida albicans amounted to 25 µg/mL (≈ 69.7 µM); against Pseudomonas aeruginosa, 100 µg/mL (≈ 279 µM); with Escherichia coli, 50 µg/mL (≈ 139 µM); against Staphylococcus aureus, 25 µg/mL (≈ 69.7 µM).

As to `CC1CCCC(C)N1CC#CCn1nc(-c2ccccc2)n(-c2cccc3ccccc23)c1=O` (stereo unspecified), the MIC in the assay on Candida albicans is 50 µg/mL (≈ 111 µM); against Pseudomonas aeruginosa, 100 µg/mL (≈ 222 µM); against Escherichia coli it was 50 µg/mL (≈ 111 µM); against Staphylococcus aureus, 50 µg/mL (≈ 111 µM).

Regarding `CC1CCCN(CC#CCn2nc(-c3ccccc3)n(-c3cccc4ccccc34)c2=O)C1` (stereo unspecified), the minimal inhibitory concentration (MIC) in the assay on Candida albicans is 50 µg/mL (≈ 115 µM); against Pseudomonas aeruginosa, 100 µg/mL (≈ 229 µM); against Escherichia coli, 50 µg/mL (≈ 115 µM); against Staphylococcus aureus, 25 µg/mL (≈ 57.3 µM).

As to `O=c1n(CC#CCN2CCCCCC2)nc(-c2ccccc2)n1-c1cccc2ccccc12`, the MIC against Candida albicans amounted to 25 µg/mL (≈ 57.3 µM); in the assay on Pseudomonas aeruginosa it was 50 µg/mL (≈ 115 µM); against Escherichia coli, 50 µg/mL (≈ 115 µM); in the assay with Staphylococcus aureus, 25 µg/mL (≈ 57.3 µM).

For the compound `O=c1n(CC#CCN2CCCCCCC2)nc(-c2ccccc2)n1-c1cccc2ccccc12`, the MIC against Candida albicans amounted to 12 µg/mL (≈ 26.6 µM); in the assay with Pseudomonas aeruginosa, 50 µg/mL (≈ 111 µM); in the assay on Escherichia coli, 25 µg/mL (≈ 55.5 µM); against Staphylococcus aureus, 50 µg/mL (≈ 111 µM).

As for `CC1CCCC(C)N1CC#CCn1nc(-c2ccc(Cl)cc2)n(-c2ccccc2)c1=O` (stereo unspecified), the MIC in the assay with Candida albicans was determined as 25 µg/mL (≈ 57.5 µM); against Pseudomonas aeruginosa, 50 µg/mL (≈ 115 µM); with Escherichia coli, 25 µg/mL (≈ 57.5 µM); in the assay with Staphylococcus aureus, 25 µg/mL (≈ 57.5 µM).

Take `CC1CCCCN1CC#CCn1nc(-c2ccc(Cl)cc2)n(-c2ccccc2)c1=O` (stereo unspecified): the MIC was 50 µg/mL (≈ 119 µM) with Candida albicans, 100 µg/mL (≈ 238 µM) against Pseudomonas aeruginosa, 50 µg/mL (≈ 119 µM) in the assay with Escherichia coli and 12.5 µg/mL (≈ 29.7 µM) in the assay on Staphylococcus aureus.

Consider `O=c1n(CC#CCN2CCCCC2)nc(-c2ccc(Cl)cc2)n1-c1ccccc1`, for which the minimal inhibitory concentration (MIC) with Candida albicans came to 25 µg/mL (≈ 61.4 µM); against Pseudomonas aeruginosa it was 100 µg/mL (≈ 246 µM); against Escherichia coli, 50 µg/mL (≈ 123 µM); against Staphylococcus aureus it was 12.5 µg/mL (≈ 30.7 µM).

As to `CC(=O)N1CCN(c2ccc(OCC3COC(Cn4ccnc4)(c4ccc(Cl)cc4Cl)O3)cc2)CC1` (stereo unspecified) [KETOCONAZOLE], the MIC against Candida albicans amounted to 12.5 µg/mL (≈ 23.5 µM).

For `CC1COc2c(N3CCN(C)CC3)c(F)cc3c(=O)c(C(=O)O)cn1c23` (stereo unspecified) [OFLOXACIN], the values for the minimum inhibitory concentration (MIC) in the assay with Pseudomonas aeruginosa, in the assay with Escherichia coli and against Staphylococcus aureus were 25 µg/mL (≈ 69.2 µM), 12.5 µg/mL (≈ 34.6 µM) and 12.5 µg/mL (≈ 34.6 µM), respectively.
